Laboratory results as given in US9718837B2, “Nitrogen-containing heterocyclic ring substituted dihydroartemisinin derivatives and use thereof” (Shenyang Pharmaceutical University, priority 2013, dated 2017).
Read-outs that look alike come from different tables or passages of the source.

Tests used:
[1] = system: Human Breast Cancer Cells (MCF-7); assay: Cell growth inhibition by direct cell counting, MCF-7; assay type: cell-based; details: Homo sapiens, MCF7; MCF-7 cells; read-out: IG50 MCF-7
Procedure: (§1) Cells were taken out carefully from liquid nitrogen (Frozen pipes), and the cell freezing medium was thawed rapidly in water bath at 37° C. in order to rapidly pass through the temperature range of 0 to 5° C. within which the cell is easily damaged. Cell suspension was sucked with pipette gun and put it into centrifugal tubes under sterile condition, then was centrifuged for 3 min at 1300 r/min. The supernatant was gently discarded, and then added with a fresh medium to pipette and mix the cells. Finally, the cells were transferred into culture flasks, and cultured in a carbon dioxide incubator. The medium was changed once after 24 h.
(§2) After resuscitation, the cells were passed for 2-3 generations till they became stable, then they were used for the experiments. Each passage was based on the standard that all cells were spread over the bottoms of culture flasks.
(§3) Cell suspensions of a certain density (5×10^4 cells/mL) were plated at 24-well plate, 2 mL/well. Different concentration of drugs were added thereto, and incubated or some time. Then, cells were counted under the microscope. The ratio of total number of cells in test group to the total number of cells in control group is the cell growth inhibition rate under the concentration condition. The total number of cells in cell suspension, which were treated by drugs, could be counted by blood count board. Inhibition rate was calculated using the formula: […]
(§4) According to cell growth inhibition rate of each concentration of drugs, half inhibitory concentration could be calculated. (IG50 is the drug concentration, when cell growth inhibition rate was 50%.)
(§5) 7) The Results of the Growth Inhibitory Activity of the Compounds on Human Breast Cancer Cells (MCF-7) and Human Multidrug Resistant Breast Cancer Cells (MCF-7/Adr) were Listed in Table 3.

[2] = system: Human Multidrug Resistant Breast Cancer Cells (MCF-7/Adr); assay: Cell growth inhibition by direct cell counting, MCF-7/Adr; assay type: cell-based; details: Homo sapiens, NCI/ADR-RES; MCF-7/Adr multidrug resistant cells; read-out: IG50 MCF-7/Adr
Procedure: as §1, §2, §3, §4, §5

[3] = system: Human leukemia cells (HL-60); assay: Cell growth inhibition by direct cell counting, HL-60; assay type: cell-based; details: HL-60 cells, drug concentration at 50% cell growth inhibition, read-out: IG50 (the source's name)
Procedure: as §1
(§6) Human leukemia cells (HL-60) were cultured in RPMI1640 medium containing 10% (v/v) fetal bovine serum, 100 U/mL penicillin and 100 μg/mL streptomycin. Murine leukemia cells (P388) and murine multidrug resistant leukemia cells (P388/Adr) were cultured in Eagle's minimum essential medium (MEM) containing 10% (v/v) fetal bovine serum, 100 U/mL penicillin and 100 μg/mL streptomycin. All of the above cell lines were incubated in 37° C. incubator with 5% carbon dioxide saturated humidity.
as §2, §3, §4

[4] = system: Murine leukemia cells (P388); assay: Cell growth inhibition by direct cell counting, P388; assay type: cell-based; details: read-out: IG50 P388
Procedure: as §1, §6, §2, §3, §4
(§7) 6) The Results of the Growth Inhibitory Activity of the Compounds on Murine Leukemia Cells (P388) and Murine Multidrug Resistant Leukemia Cells (P388/Adr) were Listed in Table 2.

[5] = system: murine multidrug resistant leukemia cells (P388/Adr); assay: Cell growth inhibition by direct cell counting, P388/Adr; assay type: cell-based; details: read-out: IG50 P388/Adr
Procedure: as §1, §6, §2, §3, §4, §7

Structure (SMILES)	IC50 [1] [µM]	melting point [°C]	IC50 [3] [µM]	other results
C[C@H]1[C@@H](Oc2ccc(Cn3ccnc3)cc2)O[C@@H]2O[C@]3(C)CC[C@H]4[C@H](C)CC[C@@H]1[C@@]24OO3 [Example 2, (10S)—O-[4-((imidazol-1-yl)methyl)phenyl]-dihydroartemisinin]	0.211	65 to 67	–	IC50 [2]: 0.631 µM
C[C@H]1[C@@H](Oc2ccc(CN3CCCCC3)cc2)O[C@@H]2O[C@]3(C)CC[C@H]4[C@H](C)CC[C@@H]1[C@@]24OO3 [Example 5, (10S)—O-[4-((piperidin-1-yl)methyl)phenyl]-dihydroartemisinin]	–	–	–	IC50 ([3]; Homo sapiens): 0.228 µM; IC50 ([4]; Mus musculus): 0.88 µM; IC50 ([5]; Mus musculus): 0.804 µM
CC1CCC2C(C)[C@@H](Oc3ccc(CN4CCC(N5CCCCC5)CC4)cc3)OC3OC4(C)CCC1C32OO4 (stereo partly drawn) [Example 6, (10S)—O-[4-[(4-(piperidinyl)piperidin-1-yl)methyl]phenyl]-dihydroartemisinin]	–	–	0.079	–
C[C@H]1[C@@H](Oc2ccc(CN3CCN(C)CC3)cc2)O[C@@H]2O[C@@]3(C)CC[C@H]4[C@H](C)CC[C@@H]1[C@@]24OO3 [Example 7, (10S)—O-[4-((4-methylpiperazin-1-yl)methyl)phenyl]-dihydroartemisinin]	–	–	0.12	–
CCN1CCN(Cc2ccc(O[C@H]3O[C@@H]4O[C@@]5(C)CC[C@H]6[C@H](C)CC[C@@H]([C@H]3C)[C@@]46OO5)cc2)CC1 [Example 8, (10S)—O-[4-((4-ethylpiperazin-1-yl)methyl)phenyl]-dihydroartemisinin]	–	–	0.083	–
CC1CCC2C(C)[C@@H](Oc3ccc(CN4CCN(C(C)C)CC4)cc3)OC3OC4(C)CCC1C32OO4 (stereo partly drawn) [Example 9, (10S)—O-[4-((4-isopropylpiperazin-1-yl)methyl)phenyl]-dihydroartemisinin]	–	–	0.071	–
CC1CCC2C(C)[C@@H](Oc3ccc(CN4CCN(c5ccccc5)CC4)cc3)OC3OC4(C)CCC1C32OO4 (stereo partly shown) [Example 10]	–	–	0.033	IC50 [4]: 0.07 µM; IC50 [5]: 0.088 µM
CC1CCC2C(C)C(Oc3ccc(CN4CCN(Cc5ccccc5)CC4)cc3)OC3OC4(C)CCC1C32OO4 [Example 16, 10-O-[4-[(4-benzylpiperazin-1-yl)methyl]phenyl]-(10S)-dihydroartemisinin]	–	–	0.105	–
CC1CCC2C(C)[C@@H](Oc3ccc(CN4CCN(CC=Cc5ccccc5)CC4)cc3)OC3OC4(C)CCC1C32OO4 (stereo partly drawn) [Example 17, 10-O-[4-[(4-cinnamylpiperazin-1-yl)methyl]phenyl]-(10S)-dihydroartemisinin]	–	–	0.059	–
C[C@H]1[C@@H](Oc2ccc(/C=C/C(=O)N3CCCC3)cc2)O[C@@H]2O[C@]3(C)CC[C@H]4[C@H](C)CC[C@@H]1[C@@]24OO3 [Example 20, (10S)—O-{4-[3-oxo-3-(pyrrolidin-1-yl)-1-(E)-propen-1-yl]phenyl}-dihydroartemisinin]	0.123	165 to 167	–	–
C[C@H]1[C@@H](Oc2ccc(/C=C/C(=O)N3CCN(C)CC3)cc2)O[C@@H]2O[C@@]3(C)CC[C@H]4[C@H](C)CC[C@@H]1[C@@]24OO3 [Example 24]	–	–	–	IC50 [4]: 0.299 µM; IC50 [5]: 0.918 µM
CCN1CCN(C(=O)/C=C/c2ccc(O[C@H]3OC4OC5(C)CCC6C(C)CCC(C3C)C46OO5)cc2)CC1 (stereo partly drawn) [Example 25, (10S)—O-{4-[3-oxo-3-(4-ethylpiperazin-1-yl)-1-(E)-propen-1-yl]phenyl}-dihydroartemisinin]	–	–	–	IC50 [4]: 0.152 µM; IC50 [5]: 0.223 µM
CC1CCC2C(C)[C@@H](Oc3ccc(/C=C/C(=O)N4CCN(c5ccccc5)CC4)cc3)OC3OC4(C)CCC1C32OO4 (stereo partly drawn) [Example 26, (10S)—O-{4-[3-oxo-3-(4-phenylpiperazin-1-yl)-1-(E)-propen-1-yl]phenyl}-dihydroartemisinin]	–	–	–	IC50 [4]: 0.145 µM; IC50 [5]: 0.153 µM
C[C@H]1[C@@H](Oc2ccc(/C=C/C(=O)Oc3ccc(/C=C/C(=O)N4CCCCC4)cc3)cc2)O[C@@H]2O[C@]3(C)CC[C@H]4[C@H](C)CC[C@@H]1[C@@]24OO3 [Example 31, 4-[(10S)-dihydroartemisinin-10-O-yl]phenyl-acrylic acid-4-[3-oxo-3-(piperidin-1-yl)-1-(E)-propen-1-yl]phenyl ester]	0.063	160 to 163	–	–
C[C@H]1[C@@H](Oc2ccc(CC(=O)N3CCCC3)cc2)O[C@@H]2O[C@]3(C)CC[C@@H]4[C@H](C)CC[C@@H]1[C@@]24OO3 [Example 33, (10S)—O-{4-[2-(pyrrolidin-1-yl)-2-oxoethyl]phenyl}-dihydroartemisinin]	3.23	73 to 74	–	IC50 [2]: 0.122 µM
C[C@H]1[C@@H](Oc2ccc(CC(=O)Nc3ccccc3)cc2)O[C@@H]2O[C@]3(C)CC[C@@H]4[C@H](C)CC[C@@H]1[C@@]24OO3 [Example 47, (10S)—O-[4-(2-phenylamino-2-oxoethyl)phenyl]-dihydroartemisinin]	1.55	172 to 173	–	IC50 [2]: 0.00966 µM
